Measured values from patent US20220267313A1, “DIHYDROPYRIMIDINE DERIVATIVES AND USES THEREOF IN THE TREATMENT OF HBV INFECTION OR OF HBV-INDUCED DISEASES” (Janssen Sciences Ireland Unlimited Company, priority 2019, published 2022).

Tests used:
HBV = assay: Anti-HBV activity: HBV DNA in culture medium by qPCR, HepG2.2.15 cells; format: cell-based; conditions: Hepatitis B virus, 144 h, 6 days treatment
Experimental: (§1) HepG2.2.15 (the HepG2.2.15 cell line can be produced by transfection of the HepG2 cell line as described in Sells, Chen, and Acs 1987 (Proc. Natl. Acad. Sci. USA 84: 1005-1009), and the HepG2 cell line is available from ATCC® under number HB-8065™)
(§2) HepG2.2.15 cells were plated into 96-well plate in 2% FBS culture medium at the density of 40,000 cells/well and 5,000 cells/well for HBV inhibitory activity and cytotoxicity determination, respectively. After incubation at 37° C., 5% CO2 overnight, cells were treated with medium containing compounds for 6 days with medium and compounds refreshed after 3 days of treatment. Each compound was tested in a 1:3 serial dilutions at 8 different concentrations in triplicate. The highest concentration of the compounds was 10 uM or 1 uM for anti-HBV activity assay and 100 uM for cytotoxicity determination.
The change of HBV DNA level induced by the compounds was assessed by quantitative real-time polymerase chain reaction (qPCR). Briefly, the HBV DNA in the culture medium was extracted using QIAamp 96 DNA Blood Kit according to the manual and then quantified by real-time PCR assay using the primers and probe in the table 1 below.
(§3) EC50 and CC50 values are calculated by the GRAPHPAD PRISM software.

[1] = Cytotoxicity determination by CCK-8 assay, HepG2.2.15 cells; format: cell-based; conditions: human, 6 days treatment
Experimental: as §1, §2
Cell viability was determined by CCK-8 assay. After 6 days of compounds treatment, 20 μl CCK-8 reagents were added to each well of cytotoxicity assay plates. Cell plates were incubated at 37° C., 5% CO2 for 2.5 h. The absorbance at 450 nm wavelength and the absorbance at 630 nm wavelength as reference was measured.
as §3

Row | Structure (SMILES) | EC50 (HBV) [nM] | CC50 at 6 days [1] [nM]
1 | CCOC(=O)C1=C(C23C4C5C2C2C3C4C52C(=O)O)NC(c2nccn2C)=NC1c1ccc(F)c(F)c1Cl (single isomer, unassigned) [Ia-4, (R*)-4-(6-(2-chloro-3,4-difluorophenyl)-5-(ethoxycarbonyl)-2-(1-methyl-1H-imidazol-2-yl)-3,6-dihydropyrimidin-4-yl)cubane-1-carboxylic Acid] | > 50000 | 55
2 | CCCOC(=O)C1=C(C23C4C5C2C2C3C4C52C(=O)O)NC(c2nccs2)=NC1c1ccc(F)c(F)c1Cl (single isomer, unassigned) [Ib-11, (S*)-4-(6-(2-chloro-3,4-difluorophenyl)-5-(propoxycarbonyl)-2-(thiazol-2-yl)-3,6-dihydropyrimidin-4-yl)cubane-1-carboxylic Acid] | 22000 | 52
3 | COC(=O)C1=C(C23C4C5C2C2C3C4C52C(=O)O)NC(c2nccs2)=NC1c1ccc(F)cc1C (single isomer, unassigned) [Ib-21, (S*)-4-(6-(4-fluoro-2-methylphenyl)-5-(methoxycarbonyl)-2-(thiazol-2-yl)-3,6-dihydropyrimidin-4-yl)cubane-1-carboxylic Acid] | > 50000 | 250
4 | CCOC(=O)C1=C(C23C4C5C2C2C3C4C52C(=O)O)NC(c2nccs2)=N[C@H]1c1cccc(F)c1C (single isomer, unassigned) [Ib-5, (1R,2R,3R,8S)-4-((S*)-5-(ethoxycarbonyl)-6-(3-fluoro-2-methylphenyl)-2-(thiazol-2-yl)-3,6-dihydropyrimidin-4-yl)cubane-1-carboxylic Acid] | 49000 | 17
5 | CCOC(=O)C1=C(C23C4C5C2C2C3C4C52C(=O)O)NC(c2ncc(F)cc2F)=NC1c1cccc(F)c1C (single isomer, unassigned) [Ib-18, (S*)-4-(2-(3,5-difluoropyridin-2-yl)-5-(ethoxycarbonyl)-6-(3-fluoro-2-methylphenyl)-3,6-dihydropyrimidin-4-yl)cubane-1-carboxylic Acid] | > 12500 | 61
6 | COC(=O)C1=C(C23C4C5C2C2C3C4C52C(=O)O)NC(c2nccs2)=N[C@@H]1c1cccc(F)c1Br (stereo in doubt) [Ib-17, (2S,3S,5S,6S,7S,8S)-4-((S*)-6-(2-bromo-3-fluorophenyl)-5-(methoxycarbonyl)-2-(thiazol-2-yl)-3,6-dihydropyrimidin-4-yl)cubane-1-carboxylic Acid] | 25000 | 125
7 | CCOC(=O)C1=C(C23C4C5C2C2C3C4C52C(=O)O)NC(c2nccs2)=N[C@@H]1c1ccccc1Cl (stereo in doubt) [Ib-25, (2S,3S,5S,6S,7S,8S)-4-((S*)-6-(2-chlorophenyl)-5-(ethoxycarbonyl)-2-(thiazol-2-yl)-3,6-dihydropyrimidin-4-yl)cubane-1-carboxylic Acid] | > 50000 | 65
8 | COC(=O)C1=C(C23C4C5C2C2C3C4C52CC(=O)O)NC(c2nccs2)=N[C@@H]1c1ccc(F)cc1Cl (single isomer, unassigned) [Ib-1, 2-((1S,2R,3R,8S)-4-((S*)-6-(2-chloro-4-fluorophenyl)-5-(methoxycarbonyl)-2-(thiazol-2-yl)-3,6-dihydropyrimidin-4-yl)cuban-1-yl)acetic Acid] | 42000 | 360
9 | COC(=O)C1=C(C23C4C5C2C2C3C4C52C(=O)O)NC(c2nccs2)=N[C@@H]1c1cccc(F)c1C (stereo in doubt) [Ia-1, (2R,3R,5R,6R,7R,8R)-4-((R*)-6-(3-fluoro-2-methylphenyl)-5-(methoxycarbonyl)-2-(thiazol-2-yl)-3,6-dihydropyrimidin-4-yl)cubane-1-carboxylic Acid] | > 50000 | 204
10 | CCOC(=O)C1=C(C23C4C5C2C2C3C4C52C(=O)O)NC(c2nccs2)=N[C@@H]1c1ccc(F)cc1Cl (stereo in doubt) [Ib-6, (2S,3S,5S,6S,7S,8S)-4-((S*)-6-(2-chloro-4-fluorophenyl)-5-(ethoxycarbonyl)-2-(thiazol-2-yl)-3,6-dihydropyrimidin-4-yl)cubane-1-carboxylic Acid] | > 50000 | 18
11 | CC(C)OC(=O)C1=C(C23C4C5C2C2C3C4C52C(=O)O)NC(c2nccs2)=NC1c1ccc(F)c(F)c1Cl (single isomer, unassigned) [Ib-12, (S*)-6-(6-Carboxy-cuban-3-yl)-4-(2-chloro-3,4-difluoro-phenyl)-2-thiazol-2-yl-1,4-dihydro-pyrimidine-5-carboxylic Acid Isopropyl Ester] | 28000 | 37
12 | COC(=O)C1=C(C23C4C5C2C2C3C4C52C(=O)O)NC(c2nccs2)=N[C@@H]1c1ccc(F)c(F)c1C (single isomer, unassigned) [Ia-3] | > 50000 | 45
13 | COC(=O)C1=C(C23C4C5C2C2C3C4C52c2nc(C(=O)O)co2)NC(c2nccs2)=N[C@@H]1c1ccc(F)cc1Cl (single isomer, unassigned) [Ib-2, 2-((1R,2R,3R,8S)-4-((S*)-6-(2-chloro-4-fluoro-phenyl)-5-(methoxycarbonyl)-2-(thiazol-2-yl)-3,6-dihydropyrimidin-4-yl)cuban-1-yl)oxazole-4-carboxylic Acid] | 24000 | 110
14 | COC(=O)C1=C(C23C4C5C2C2C3C4C52C(=O)O)NC(c2nccs2)=N[C@@H]1c1cccc(F)c1Cl (single isomer, unassigned) [Ib-8, (1S,2R,3S,8S)-4-((S*)-6-(2-chloro-3-fluorophenyl)-5-(methoxycarbonyl)-2-(thiazol-2-yl)-3,6-dihydropyrimidin-4-yl)cubane-1-carboxylic Acid] | > 50000 | 132
15 | COC(=O)C1=C(C23C4C5C2C2C3C4C52C(=O)O)NC(c2nccs2)=N[C@@H]1c1ccc(F)cc1Br (stereo in doubt) [Ib-16, (2S,3S,5S,6S,7S,8S)-4-((S*)-6-(2-bromo-4-fluorophenyl)-5-(methoxycarbonyl)-2-(thiazol-2-yl)-3,6-dihydropyrimidin-4-yl)cubane-1-carboxylic Acid] | > 50000 | 71
16 | COC(=O)C1=C(C23C4C5C2C2C3C4C52C(=O)O)NC(c2nccs2)=N[C@@H]1c1ccc(F)c(F)c1Cl (single isomer, unassigned) [Ib-4, (1R,2R,3R,8S)-4-((S*)-6-(2-chloro-3,4-difluorophenyl)-5-(methoxycarbonyl)-2-(thiazol-2-yl)-3,6-dihydropyrimidin-4-yl)cubane-1-carboxylic Acid] | 51000 | 22
17 | CCOC(=O)C1=C(C23C4C5C2C2C3C4C52C(=O)O)NC(c2nccs2)=NC1c1ccc(F)c(F)c1F (single isomer, unassigned) [Ib-20, (S*)-4-(5-(ethoxycarbonyl)-2-(thiazol-2-yl)-6-(2,3,4-trifluorophenyl)-3,6-dihydropyrimidin-4-yl)cubane-1-carboxylic Acid] | 46000 | 28
18 | COC(=O)C1=C(C23C4C5C2C2C3C4C52C(=O)O)NC(c2ncc(F)cc2F)=NC1c1cccc(F)c1C (single isomer, unassigned) [Ib-26, (S*)-4-(2-(3,5-difluoropyridin-2-yl)-5-(methoxycarbonyl)-6-(3-fluoro-2-methylphenyl)-3,6-dihydropyrimidin-4-yl)cubane-1-carboxylic Acid] | > 12500 | 160
19 | CCOC(=O)C1=C(C23C4C5C2C2C3C4C52C(=O)O)NC(c2nccs2)=NC1c1ccc(Cl)c(F)c1 (single isomer, unassigned) [Ib-23, (S*)-4-(6-(4-chloro-3-fluorophenyl)-5-(ethoxycarbonyl)-2-(thiazol-2-yl)-3,6-dihydropyrimidin-4-yl)cubane-1-carboxylic Acid] | > 6250 | 13
20 | COC(=O)C1=C(C23C4C5C2C2C3C4C52C(=O)O)NC(c2nccs2)=N[C@@H]1c1ccc(F)c(F)c1Br (stereo in doubt) [Ib-13, (2S,3S,5S,6S,7S,8S)-4-((S*)-6-(2-bromo-3,4-difluorophenyl)-5-(methoxycarbonyl)-2-(thiazol-2-yl)-3,6-dihydropyrimidin-4-yl)cubane-1-carboxylic Acid] | > 25000 | 27
21 | CCOC(=O)C1=C(C23C4C5C2C2C3C4C52C(=O)O)NC(c2nccs2)=N[C@@H]1c1ccc(F)c(F)c1Cl (stereo in doubt) [Ib-7, (2S,3S,5S,6S,7S,8S)-4-((S*)-6-(2-chloro-3,4-difluorophenyl)-5-(ethoxycarbonyl)-2-(thiazol-2-yl)-3,6-dihydropyrimidin-4-yl)cubane-1-carboxylic Acid] | 25000 | 5
22 | CCOC(=O)C1=C(C23C4C5C2C2C3C4C52C(=O)O)NC(c2nccs2)=N[C@@H]1c1cccc(F)c1Br (single isomer, unassigned) [Ib-19, (1S,2R,3S,8S)-4-((S*)-6-(2-bromo-3-fluorophenyl)-5-(ethoxycarbonyl)-2-(thiazol-2-yl)-3,6-dihydropyrimidin-4-yl)cubane-1-carboxylic Acid] | > 25000 | 12.5
